Consider 15 compounds from patent US9469637B2, “Nitrogenated heterocyclic compound” (Takeda Pharmaceutical Company Limited, priority 2012, dated 2016).

The term inhibition denotes the percentage by which the read-out fell short of the control.

Structures are written as SMILES.

For this experiment, the target named is T1, Human PDE2A3 enzyme (Homo sapiens, UniProt O00408).
T1 construct: generated from Sf9 cells transfected with the full-length gene; His-tag; made in house; host or cells: Sf9 insect cells
T1 sequence (O00408 whole entry): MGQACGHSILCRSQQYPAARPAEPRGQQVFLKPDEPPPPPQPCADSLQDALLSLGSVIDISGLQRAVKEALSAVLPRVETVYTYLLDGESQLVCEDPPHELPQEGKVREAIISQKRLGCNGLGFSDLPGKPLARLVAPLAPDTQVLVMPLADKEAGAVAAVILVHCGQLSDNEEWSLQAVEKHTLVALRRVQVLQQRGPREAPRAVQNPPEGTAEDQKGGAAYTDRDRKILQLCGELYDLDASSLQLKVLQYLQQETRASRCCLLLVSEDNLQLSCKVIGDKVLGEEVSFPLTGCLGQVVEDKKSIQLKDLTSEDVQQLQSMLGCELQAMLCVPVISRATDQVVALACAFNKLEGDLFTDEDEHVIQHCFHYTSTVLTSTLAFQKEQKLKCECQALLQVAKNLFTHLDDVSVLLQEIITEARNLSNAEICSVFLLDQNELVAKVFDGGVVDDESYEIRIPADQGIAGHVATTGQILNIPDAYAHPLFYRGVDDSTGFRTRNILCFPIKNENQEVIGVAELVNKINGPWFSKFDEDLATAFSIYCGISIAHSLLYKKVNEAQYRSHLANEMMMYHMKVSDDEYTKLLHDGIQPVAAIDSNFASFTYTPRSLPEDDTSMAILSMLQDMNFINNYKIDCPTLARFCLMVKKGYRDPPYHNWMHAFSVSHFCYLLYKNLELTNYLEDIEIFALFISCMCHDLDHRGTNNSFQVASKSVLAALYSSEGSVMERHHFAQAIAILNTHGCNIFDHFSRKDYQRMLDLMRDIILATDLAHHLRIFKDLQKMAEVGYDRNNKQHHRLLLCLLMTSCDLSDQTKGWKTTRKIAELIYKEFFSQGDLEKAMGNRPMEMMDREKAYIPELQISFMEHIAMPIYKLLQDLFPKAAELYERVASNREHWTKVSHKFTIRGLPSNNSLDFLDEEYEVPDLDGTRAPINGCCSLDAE
Put plainly: PDE2A3 enzyme inhibition, SPA (Scintillation Proximity Assay). It counts as biochemical. The settings on record: 1 μM compound, substrate [3H] cGMP, read-out: Inhibition Rate (%) (1 μM). As for the experimental part: Human PDE2A3 enzyme was generated from Sf9 cells transfected with the full-length gene. The extracted enzyme from Sf9 cells was purified by His-tag affinity column and gel filtration. The enzyme was stored at −70° C. until use. PDE activity was measured using a SPA (Scintillation Proximity Assay) (GE Healthcare). To evaluate the inhibitory activity, 10 μl of serial diluted compounds were incubated with 20 μl of PDE enzyme in assay buffer (50 mM HEPES-NaOH, 8.3 mM MgCl2, 1.7 mM EGTA, 0.1% BSA (pH 7.4)) for 30 min. at room temperature. Final concentration of DMSO in the assay was 1 percent as compounds were tested in duplicate in 96-well half-area plates (Corning) or 384-well OptiPlate (PerkinElmer). To start the reaction, 10 μl of substrate [^3H] cGMP (77 nM, PerkinElmer) was added for a final assay volume of 40 μl. After 60 min incubation at room temperature, 20 μl of 20 mg/ml yttrium SPA beads containing Zinc sulphate was added to terminate the PDE reaction. […] Inhibition rate was calculated on the basis of 0% control wells with enzyme and DMSO, and 100% control wells without enzyme.
(Scintillation proximity formats need no separation of bound from free tracer.)
For the compound `CCC(NC(=O)N1CC(=O)Nc2ccc(OC)nc21)c1ccc(OC(F)(F)F)cc1` (stereo not drawn) [Example 52, 6-methoxy-2-oxo-N-(1-(4-(trifluoromethoxy)phenyl)propyl)-2,3-dihydropyrido[2,3-b]pyrazine-4(1H)-carboxamide], the inhibition at 1 µM is 93%.
The value for `CC(C)(O)C(NC(=O)N1CC(=O)Nc2cc(C3CC3)cnc21)c1ccc(OC(F)(F)F)c(F)c1` (stereo not drawn) [Example 76, Optically active 7-cyclopropyl-N-(1-(3-fluoro-4-(trifluoromethoxy)phenyl)-2-hydroxy-2-methylpropyl)-2-oxo-2,3-dihydropyrido[2,3-b]pyrazine-4(1H)-carboxamide] was 100%; that for `COC[C@@H](NC(=O)N1CC(=O)Nc2ccc(-n3cccn3)nc21)c1ccc(OC(F)(F)F)c(F)c1` [Example 117, N-((1S)-1-(3-fluoro-4-(trifluoromethoxy)phenyl)-2-methoxyethyl)-2-oxo-6-(1H-pyrazol-1-yl)-2,3-dihydropyrido[2,3-b]pyrazine-4(1H)-carboxamide] was 99%.
As to `COC[C@@H](NC(=O)N1CC(=O)Nc2ccc(-n3cccn3)nc21)c1ccc(OC(F)(F)F)cc1` [Example 130, N-((1S)-2-methoxy-1-(4-(trifluoromethoxy)phenyl)ethyl)-2-oxo-6-(1H-pyrazol-1-yl)-2,3-dihydropyrido[2,3-b]pyrazine-4(1H)-carboxamide], the inhibition at 1 µM was determined as 99%.
The value for `COCC(NC(=O)N1CC(=O)Nc2cc(C)cnc21)c1ccc(-n2cccn2)cc1` (stereo not drawn) [Example 134, N-(2-methoxy-1-(4-(H-pyrazol-1-yl)phenyl)ethyl)-7-methyl-2-oxo-2,3-dihydropyrido[2,3-b]pyrazine-4(1H)-carboxamide] was 97%; that for `COCC(NC(=O)N1CC(=O)Nc2cc(C)cnc21)c1ccc(-n2cccn2)c(F)c1` (stereo not drawn) [Example 143, N-(1-(3-fluoro-4-(1H-pyrazol-1-yl)phenyl)-2-methoxyethyl)-7-methyl-2-oxo-2,3-dihydropyrido[2,3-b]pyrazine-4(1H)-carboxamide] was 98%.
For the compound `Cc1cnc2c(c1)NC(=O)CN2C(=O)NC1(c2ccc(OC(F)(F)F)cc2)CC1` [Example 152, 7-methyl-2-oxo-N-(1-(4-(trifluoromethoxy)phenyl)cyclopropyl)-2,3-dihydropyrido[2,3-b]pyrazine-4(1H)-carboxamide], the inhibition at 1 µM was found to be 97%.
Turning to `CCC(NC(=O)N1CC(=O)Nc2cc(C)cnc21)c1ccc(-n2cccn2)s1` (stereo not drawn) [Example 162, 7-methyl-2-oxo-N-(1-(5-(1H-pyrazol-1-yl)-2-thienyl)propyl)-2,3-dihydropyrido[2,3-b]pyrazine-4(1H)-carboxamide], the inhibition at 1 µM came out at 97%.
The value for `Cc1cnc2c(c1)NC(=O)CN2C(=O)NC(c1ccc(OC(F)(F)F)cc1)C1CCCO1` (stereo not drawn) [Example 200, 7-methyl-2-oxo-N-(tetrahydrofuran-2-yl(4-(trifluoromethoxy)phenyl)methyl)-2,3-dihydropyrido[2,3-b]pyrazine-4(1H)-carboxamide] was 100%.
As for `COCC(NC(=O)N1CC(=O)Nc2ccc(-c3ccn(C)n3)nc21)c1ccc(OC(F)(F)F)cc1` (stereo not drawn) [Example 222, N-(2-methoxy-1-(4-(trifluoromethoxy)phenyl)ethyl)-6-(1-methyl-1H-pyrazol-3-yl)-2-oxo-2,3-dihydropyrido[2,3-b]pyrazine-4(1H)-carboxamide], the inhibition at 1 µM worked out at 99%.
Regarding `COc1cc2c(nc1C)N(C(=O)N[C@@H](c1ccc(OC(F)(F)F)cc1)C(C)(C)O)CC(=O)N2` [Example 253, N-((1S)-2-hydroxy-2-methyl-1-(4-(trifluoromethoxy)phenyl)propyl)-7-methoxy-6-methyl-2-oxo-2,3-dihydropyrido[2,3-b]pyrazine-4(1H)-carboxamide], the inhibition at 1 µM was found to be 100%.
The same measure for `COc1nc2c(cc1C)NC(=O)CN2C(=O)N[C@@H](c1ccc(OC(F)(F)F)cc1)C(C)(C)O` [Example 261, N-((1S)-2-hydroxy-2-methyl-1-(4-(trifluoromethoxy)phenyl)propyl)-6-methoxy-7-methyl-2-oxo-2,3-dihydropyrido[2,3-b]pyrazine-4(1H)-carboxamide]: 100%.
The value for `CC(C)(O)C(NC(=O)N1CC(=O)Nc2cc(C3CC3)cnc21)c1ccc(C(F)(F)F)cc1` (stereo not drawn) [Example 266, Optically active 7-cyclopropyl-N-(2-hydroxy-2-methyl-1-(4-(trifluoromethyl)phenyl)propyl)-2-oxo-2,3-dihydropyrido[2,3-b]pyrazine-4(1H)-carboxamide] was 100%; that for `COc1cnc2c(c1)NC(=O)CN2C(=O)NC(c1ccc(C(F)(F)F)cc1)C(C)(C)O` (stereo not drawn) [Example 268, Optically active N-(2-hydroxy-2-methyl-1-(4-(trifluoromethyl)phenyl)propyl)-7-methoxy-2-oxo-2,3-dihydropyrido[2,3-b]pyrazine-4(1H)-carboxamide] was 99%; that for `Cc1cnc2c(c1)NC(=O)CN2C(=O)NC(c1ccc(OC(F)(F)F)c(F)c1)C(C)(C)O` (stereo not drawn) [Example 273, Optically active N-(1-(3-fluoro-4-(trifluoromethoxy)phenyl)-2-hydroxy-2-methylpropyl)-7-methyl-2-oxo-2,3-dihydropyrido[2,3-b]pyrazine-4(1H)-carboxamide] was 98%.
